Experimental data as given in US20240408057A1, “Composition for preventing or treating cachexia and muscle loss” (METAFINES.CO.LTD., priority 2023, published 2024).

Key:
Format in all cases: cell-based, mouse
PDK-4 [1] = test: PDK-4 expression (Western blot) in CCM-treated C2C12 myotubes; settings: for expression of PDK-4: C2C12 myotubes + CCM, 72 hours, comparison experiment with components alone and in combination; for expression level of PDK-4: C2C12 myotubes, differentiation medium:CCM 1:1, 72 hours, three predetermined concentrations, vs CCM control
Procedure: (§1) C2C12 cell line was dispensed into a 6-well plate at 4.0×10^5 cells/well and cultured in DMEM medium containing 10% fetal bovine serum (FBS) under 37° C. and 5% CO2 conditions for one day. When the cell density reached about 80%, the medium was replaced with a differentiation medium and the cells were cultured for additional 3 days. […] After culturing for 72 hours, the cells were collected and analyzed for PDK-4, which is a target marker, by Western blot and the results are summarized in FIG. 6.
(§2) A C2C12 cell line was dispensed into a 6-well plate at 4.0×10^5 cells/well, and then cultured in DMEM medium containing 10% fetal bovine serum (FBS) under 37° C. and 5% CO2 conditions for one day. When the cell density reached about 80%, the medium was replaced with a differentiation medium and the cells were cultured for additional 3 days.
Subsequently, MuRF1, Atrogin1, MyHC, Myogenin (muscle markers) and Calpain 3, PDK-4, and GDF-15 (other target markers for muscle related disease) were analyzed using Western blot, and the relative expression levels for the markers are shown in FIGS. 26 and 28.

Calpain 3 = Calpain 3 expression (Western blot) in CCM-treated C2C12 myotubes
Procedure: as §1
The experiment was performed in the same manner as in Experimental Example 3-1, except that Calpain 3 was analyzed as a target marker for Western blot, and the results are summarized in FIG. 7.
as §2

GDF-15 = GDF-15 expression (Western blot) in CCM-treated C2C12 myotubes; settings: for expression of GDF-15: C2C12 myotubes + CCM, 72 hours, comparison experiment with components alone and in combination; for expression level of GDF-15: C2C12 myotubes, differentiation medium:CCM 1:1, 72 hours, three predetermined concentrations, vs CCM control
Procedure: as §1
The analysis was performed in the same manner as in Experimental Example 4-1 except for analyzing GDF-15 as a target marker for a Western blot, and the results are summarized in FIGS. 8 and 9.
The analysis was performed in the same manner as in Experimental Example 3-1 except for analyzing PDK-4 as a target marker for Western blot, and the results are summarized in FIGS. 10 and 11.
as §2

MuRF1 [2] = test: MuRF1 expression (Western blot) in CCM-treated C2C12 myotubes; settings: 72 hours, compared to other experimental groups (components alone and in combination)
Procedure: (§3) A C2C12 cell line was dispensed into a 6-well plate at 4.0×10^5 cells/well, and then cultured in DMEM medium containing 10% fetal bovine serum (FBS) under 37° C. and 5% CO2 conditions for one day. When the cell density reached about 80%, the medium was replaced with a differentiation medium and the cells were cultured for additional 3 days. After confirming completion of differentiation of the cells, the cells were treated with a mixture, in which the differentiation medium and cancer-cell conditioned medium (CCM) were mixed at a 1:1 ratio, to form a control group, and simultaneously, a test group was set up by treating with the calcium salts of Preparation Examples 1 to 3 according to three predetermined concentrations.
as §2

Atrogin1 [3] = test: Atrogin1 expression (Western blot) in CCM-treated C2C12 myotubes; settings: 72 hours, compared to other experimental groups (components alone and in combination)
Procedure: as §3, §2

MyHC [4] = test: MyHC expression (Western blot) in CCM-treated C2C12 myotubes; settings: 72 hours, compared to other experimental groups (components alone and in combination)
Procedure: as §3, §2

Myogenin [5] = test: Myogenin expression (Western blot) in CCM-treated C2C12 myotubes; settings: 72 hours, compared to other experimental groups (components alone and in combination)
Procedure: as §3, §2

C2C12 myotube cells [6] = test: Myotube diameter of C2C12 myotubes treated with inducers (no CCM); settings: 72 hours
Procedure: (§4) A C2C12 cell line was dispensed into a 6-well plate at 4.0×10^5 cells/well, and then cultured in DMEM medium containing 10% fetal bovine serum (FBS) under 37° C. and 5% CO2 conditions for one day. When the cell density reached about 80%, the medium was replaced with a differentiation medium and the cells were cultured for additional 3 days to set up a normal control group, and simultaneously a test group was set up by treatment with WY-14643, which is a PDK-4 activator, at a concentration of 50 μM. […] Scale bars inserted in FIGS. 13A and 13B represent a horizontal length of 50 μm. Referring to FIG. 13, it was confirmed that the diameter of myotube cells decreased when treated with the PDK-4 activator (i.e., WY-14643), thereby inducing the cells to a state similar to that of cancer cachexia.
A C2C12 cell line was dispensed into a 6-well plate at 4.0×10^5 cells/well, and then cultured in DMEM medium containing 10% fetal bovine serum (FBS) under 37° C. and 5% CO2 conditions for one day. […]
A C2C12 cell line was dispensed into a 6-well plate at 4.0×10^5 cells/well, and then cultured in DMEM medium containing 10% fetal bovine serum (FBS) under 37° C. and 5% CO2 conditions for one day. […] The myotube diameter was measured using Image J to confirm the changes in diameter of myotube cells, and the results are shown in FIG. 37B.

PDK-4 [7] = test: PDK-4 expression (Western blot) in C2C12 myotubes treated with inducers (no CCM); settings: 50 μM, 72 hours, vs UCM
Procedure: as §4
Subsequently, the expression of PDK-4, MuRF1, Atrogin1, MyHC, and Myogenin in the normal control group (UCM) and the activator-treated group (WY-14643) were analyzed by Western blot, and the results are shown in FIGS. 14A and 14B.
as §2, with “days. […]” for “days.”

MuRF1 [8] = test: MuRF1 expression (Western blot) in C2C12 myotubes treated with inducers (no CCM); settings: 50 μM, 72 hours, vs UCM
Procedure: as §4
(§5) Subsequently, the expression of PDK-4, MuRF1, Atrogin1, MyHC, and Myogenin in the normal control group (UCM) and the activator-treated group (WY-14643) were analyzed by Western blot, and the results are shown in FIGS. 14A and 14B. […]
(§6) Subsequently, the expression of Calpain 3, MuRF1, Atrogin1, MyHC, and Myogenin in the normal control group (UCM), vehicle control group (scrambled siRNA), and Calpain 3 siRNA treated group was analyzed by Western blot, and the results are shown in FIGS. 16A and 16B. […]

Atrogin1 [9] = test: Atrogin1 expression (Western blot) in C2C12 myotubes treated with inducers (no CCM); settings: 50 μM, 72 hours, vs UCM
Procedure: as §4, §5, §6

MyHC [10] = test: MyHC expression (Western blot) in C2C12 myotubes treated with inducers (no CCM); settings: 50 μM, 72 hours, vs UCM
Procedure: as §4, §5, §6

Myogenin [11] = test: Myogenin expression (Western blot) in C2C12 myotubes treated with inducers (no CCM); settings: 50 μM, 72 hours, vs UCM
Procedure: as §4, §5, §6

C2C12 myotube cells [12] = test: Myotube diameter (crystal violet, Image J) of CCM-treated C2C12 myotubes; settings: C2C12 myotubes + CCM 1:1, 72 hours, predetermined concentration; compared to CCM
Procedure: A C2C12 cell line was dispensed into a 6-well plate at 4.0×10^5 cells/well, and then cultured in DMEM medium containing 10% fetal bovine serum (FBS) under 37° C. and 5% CO2 conditions for one day. When the cell density reached about 80%, the medium was replaced with a differentiation medium and the cells were cultured for additional 3 days. […] The myotube diameter was measured using Image J from the above image, and the change in myotube cell diameter is summarized in FIG. 17B. A C2C12 cell line was dispensed into a 6-well plate at 4.0×10^5 cells/well, and then cultured in DMEM medium containing 10% fetal bovine serum (FBS) under 37° C. and 5% CO2 conditions for one day. When the cell density reached about 80%, the medium was replaced with a differentiation medium and the cells were cultured for additional 3 days. […] The myotube diameter was measured using Image J from the above images, and the changes in myotube cell diameter are summarized in FIG. 24B.

[13] = C2C12 myotubes + CCM, 72 hours, compared to other experimental groups (components alone and in combination)
[14] = C2C12 myotubes, differentiation medium:CCM 1:1, 72 hours, three predetermined concentrations, vs CCM control

| Compound | expression of PDK-4 (PDK-4 [1]) | expression level of PDK-4 (PDK-4 [1]) | expression level of Calpain 3 (Calpain 3; [13]) | expression level of Calpain 3 (Calpain 3; [14]) | expression of GDF-15 (GDF-15) | expression level of GDF-15 (GDF-15) | expression of MuRF1 (MuRF1 [2]) | expression of Atrogin1 (Atrogin1 [3]) | expression of MyHC (MyHC [4]) | expression of Myogenin (Myogenin [5]) | diameter of myotube cells (C2C12 myotube cells [12]) | further results |
| --- | --- | --- | --- | --- | --- | --- | --- | --- | --- | --- | --- | --- |
| CC(C)CC(N)C(=O)[O-].O=C1OC(C(O)CO)C([O-])=C1O.[Ca+2] (centres unmarked) [Preparation Example 2, calcium salts of ascorbic acid and leucine] | inhibited | expression was inhibited | higher expression level | decrease in expression was inhibited | inhibited | expression was inhibited | excellent effect of inhibiting the increase of expression | excellent effect of inhibiting the increase of expression | excellent effect of inhibiting the decrease of expression | excellent effect of inhibiting the decrease of expression | – | – |
| CC(C)CC(N)C(=O)[O-].O=C([O-])C(Cl)Cl.[Ca+2] (centres unmarked) [Preparation Example 3, calcium salts of dichloroacetic acid and leucine] | inhibited | expression was inhibited | higher expression level | decrease in expression was inhibited | inhibited | expression was inhibited | excellent effect of inhibiting the increase of expression | excellent effect of inhibiting the increase of expression | excellent effect of inhibiting the decrease of expression | excellent effect of inhibiting the decrease of expression | – | – |
| Cc1cccc(Nc2cc(Cl)nc(SCC(=O)O)n2)c1C [WY-14643] | – | – | – | – | – | – | – | – | – | – | – | diameter of myotube cells (C2C12 myotube cells [6]; 50 μM, vs normal control (UCM)): decreased; expression of PDK-4 (PDK-4 [7]): up-regulated; expression of MuRF1 (MuRF1 [8]): up-regulated; expression of Atrogin1 (Atrogin1 [9]): up-regulated; expression of MyHC (MyHC [10]): down-regulated; expression of Myogenin (Myogenin [11]): down-regulated |
| O=C1O[C@H]([C@@H](O)CO)C(O)=C1O [ascorbic acid, reference compound] | – | – | – | – | – | – | – | – | – | – | increased | – |
| C[C@@H]1C[C@H]2[C@@H]3CCC4=CC(=O)C=C[C@]4(C)[C@@]3(F)[C@@H](O)C[C@]2(C)[C@@]1(O)C(=O)CO [dexamethasone] | – | – | – | – | – | – | – | – | – | – | – | treatment concentration from which the myotube diameter started to decrease (C2C12 myotube cells [6]): ≥ 1 µM |
| O=C(O)C(Cl)Cl [dichloroacetic acid, reference compound] | – | – | – | – | – | – | – | – | – | – | increased | – |
